From PubChem BioAssay (NCI) come the findings set out here.

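Assay format: 96-well plates, 48-hour exposure. The concentration for 50% growth inhibition is given as GI50. Definition used: TGI = concentration required for complete inhibition of growth.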

Among the test systems are SK-MEL-5 melanoma; ACHN renal; HOP-62 NSCLC; UACC-257 melanoma; A549 NSCLC; RPMI-8226 leukemia; T-47D breast; HOP-92 NSCLC; NCI-H23 lung; HCC-2998 colon.
Assay in all cases: DTP human tumour cell line panel, 48 h

The term GI50 denotes the concentration at which growth is held to half of that of the control. Usually TGI stands for the concentration at which net growth stops. Read a high TGI as lower sensitivity of the cells. On to `COc1cc(C(=O)/C=C/c2c(C)n([O-])c3ccc(C)cc3[n+]2=O)cc(OC)c1OC`, for which the GI50 in the assay on SK-MEL-5 melanoma is 14.8 µM; with ACHN renal, 2.23 µM; in the assay with HOP-62 NSCLC it was 21.3 µM; with UACC-257 melanoma, 2.54 µM; with A549 NSCLC it was 15.7 µM; in the assay on RPMI-8226 leukemia, 2.87 µM. Further, the GI50 with T-47D breast is 2.23 µM; with HOP-92 NSCLC, 5.56 µM; in the assay with NCI-H23 lung, 10.4 µM; with HCC-2998 colon, 17 µM. Besides, the TGI with SK-MEL-5 melanoma was found to be 28 µM; in the assay with ACHN renal, 5.6 µM; in the assay with HOP-62 NSCLC, 47.8 µM; in the assay on UACC-257 melanoma, 10.2 µM; in the assay on A549 NSCLC it was 82.1 µM; in the assay on RPMI-8226 leukemia, 17.6 µM. Also, the total growth inhibition concentration (TGI) in the assay with T-47D breast is 5.81 µM; with HOP-92 NSCLC, greater than 27.1 µM; with NCI-H23 lung it was 26.4 µM; in the assay with HCC-2998 colon, 31 µM.

With `CCCCC[C@H](O)/C=C/[C@@H]1[C@@H](C/C=C\CCCC(=O)O)[C@@H](O)C[C@H]1O`, the GI50 with SK-MEL-5 melanoma, in the assay on ACHN renal, in the assay on UACC-257 melanoma, in the assay on A549 NSCLC, with RPMI-8226 leukemia and in the assay on T-47D breast was greater than 100 µM each time. In addition, the GI50 in the assay on HOP-92 NSCLC, in the assay with NCI-H23 lung and with HCC-2998 colon was greater than 100 µM in each case. For the same compound, the TGI in the assay on SK-MEL-5 melanoma, in the assay with ACHN renal, with UACC-257 melanoma, in the assay with A549 NSCLC, in the assay on RPMI-8226 leukemia and in the assay with T-47D breast was greater than 100 µM in each case. Also, the concentration for total growth inhibition (TGI) in the assay on HOP-92 NSCLC, in the assay on NCI-H23 lung and with HCC-2998 colon was greater than 100 µM in each case.

As for `C=CC[n+]1c(/C=C/C=C2\N(C)c3ccccc3C2(C)C)sc2ccc(OC)cc21`, the 50% growth inhibitory concentration (GI50) in the assay with SK-MEL-5 melanoma is 0.0615 µM; with ACHN renal, 1.65 µM; in the assay on HOP-62 NSCLC, 0.291 µM; in the assay on UACC-257 melanoma, 0.197 µM; with A549 NSCLC, 0.279 µM; in the assay with RPMI-8226 leukemia, 0.0692 µM. For the same compound, the 50% growth inhibitory concentration (GI50) with T-47D breast was 0.0231 µM; in the assay with HOP-92 NSCLC, 0.201 µM; in the assay on NCI-H23 lung it was 0.0761 µM; in the assay on HCC-2998 colon, 0.258 µM. The TGI in the assay on SK-MEL-5 melanoma was determined as 0.239 µM; in the assay with ACHN renal, 10.9 µM; in the assay on HOP-62 NSCLC, 11.9 µM; with UACC-257 melanoma it was 0.733 µM; in the assay on A549 NSCLC it was 16.1 µM; with RPMI-8226 leukemia, 0.705 µM. Moreover, the total growth inhibition concentration (TGI) in the assay on T-47D breast was 0.561 µM; in the assay with HOP-92 NSCLC, 1.61 µM; with NCI-H23 lung, 12.9 µM; with HCC-2998 colon, 21.3 µM.

As to `Clc1ncnc(Cl)c1Cl`, the TGI in the assay on SK-MEL-5 melanoma, in the assay on ACHN renal, with HOP-62 NSCLC, in the assay with A549 NSCLC, in the assay with RPMI-8226 leukemia and in the assay with T-47D breast was greater than 100 µM each time. Besides, the TGI in the assay with HOP-92 NSCLC, with NCI-H23 lung and in the assay with HCC-2998 colon was greater than 100 µM throughout.

On to `Nc1ccc2c(c1)C(=O)C(=O)c1c-2nc2ccccn12`, for which the 50% growth inhibitory concentration (GI50) is 0.178 µM with SK-MEL-5 melanoma; 1.22 µM in the assay on ACHN renal; 1.08 µM in the assay on UACC-257 melanoma; 1.62 µM in the assay with A549 NSCLC; 1.8 µM in the assay with RPMI-8226 leukemia; 1.76 µM in the assay with T-47D breast. Moreover, the values for the GI50 in the assay with HOP-92 NSCLC, in the assay on NCI-H23 lung and in the assay on HCC-2998 colon were 2 µM, 0.576 µM and 2.22 µM, respectively. The TGI in the assay with SK-MEL-5 melanoma was found to be 0.329 µM; in the assay with ACHN renal it was 2.46 µM; in the assay with UACC-257 melanoma, 2.28 µM; in the assay on A549 NSCLC, 3.54 µM; in the assay with RPMI-8226 leukemia, 4.71 µM; in the assay on T-47D breast it was 4.13 µM. The total growth inhibition concentration (TGI) was determined as 4.21 µM in the assay on HOP-92 NSCLC, 3.05 µM with NCI-H23 lung and 4.09 µM in the assay with HCC-2998 colon.

On to `Cc1ccc(S(=O)(=O)OC2CCN(C)CC2)cc1`, for which the total growth inhibition concentration (TGI) in the assay on SK-MEL-5 melanoma was 44.6 µM; in the assay on ACHN renal, greater than 100 µM; with HOP-62 NSCLC, greater than 100 µM; in the assay with UACC-257 melanoma, greater than 100 µM; in the assay with A549 NSCLC it was greater than 100 µM; in the assay on RPMI-8226 leukemia, 49.8 µM. Also, the total growth inhibition concentration (TGI) with T-47D breast was 48.6 µM; with HOP-92 NSCLC it was 42.3 µM; with NCI-H23 lung, greater than 100 µM.

Regarding `O=C1C(Cl)=C(Nc2cccc(Cl)c2)C(=O)N1Cc1ccccc1`, the GI50 in the assay with SK-MEL-5 melanoma is 6.83 µM; in the assay on ACHN renal it was 14 µM; with HOP-62 NSCLC, 11.2 µM; in the assay with A549 NSCLC it was 16.1 µM; with RPMI-8226 leukemia, 1.37 µM; in the assay on T-47D breast, 33.8 µM. Further, the GI50 in the assay on HOP-92 NSCLC is 5.36 µM; in the assay on NCI-H23 lung, 5.94 µM; with HCC-2998 colon, 4.59 µM. Further, the TGI in the assay with SK-MEL-5 melanoma is 20.3 µM; in the assay with ACHN renal, 28.8 µM; in the assay with HOP-62 NSCLC, 24.4 µM; in the assay with A549 NSCLC, 39.9 µM; in the assay on RPMI-8226 leukemia it was 7.9 µM; in the assay with T-47D breast, greater than 100 µM. Moreover, the TGI with HOP-92 NSCLC stood at 26.3 µM; in the assay with NCI-H23 lung, 23.4 µM; with HCC-2998 colon it was 18.1 µM.

Turning to `COc1cc2c3c(n(CCCN)c(=O)c2cc1OC)-c1ccccc1C3=O`, the GI50 is 2.02 µM in the assay with SK-MEL-5 melanoma; 1.14 µM with ACHN renal; 0.351 µM with HOP-62 NSCLC; 6.3 µM in the assay with UACC-257 melanoma; 0.0772 µM in the assay on RPMI-8226 leukemia; 7.18 µM in the assay with T-47D breast. Besides, the figures for the GI50 in the assay with HOP-92 NSCLC, with NCI-H23 lung and in the assay with HCC-2998 colon were 15.2 µM, 1.25 µM and 0.531 µM, respectively. Further, the TGI is 19.8 µM in the assay on SK-MEL-5 melanoma; 8.1 µM with ACHN renal; 2.96 µM in the assay on HOP-62 NSCLC; 27.8 µM in the assay with UACC-257 melanoma; 39 µM in the assay with T-47D breast; 36.7 µM in the assay on HOP-92 NSCLC. Moreover, the total growth inhibition concentration (TGI) with NCI-H23 lung worked out at 6.03 µM; in the assay with HCC-2998 colon it was 2.11 µM.

In the case of `N=C(N)c1ccc(OCc2cccc(COc3ccc(C(=N)N)cc3)c2)cc1`, the GI50 is 1.96 µM in the assay with SK-MEL-5 melanoma; 17.8 µM in the assay with ACHN renal; 14.4 µM in the assay on UACC-257 melanoma; 19.3 µM in the assay with A549 NSCLC; 3.11 µM in the assay on RPMI-8226 leukemia; 26.9 µM in the assay with T-47D breast. The GI50 is 3.01 µM with HOP-92 NSCLC, 8.59 µM in the assay with NCI-H23 lung and 11.4 µM in the assay on HCC-2998 colon. Besides, the total growth inhibition concentration (TGI) with SK-MEL-5 melanoma is 4.28 µM; in the assay on ACHN renal it was 49.3 µM; with UACC-257 melanoma, 84.8 µM; in the assay on A549 NSCLC, greater than 100 µM; in the assay on RPMI-8226 leukemia, 7.88 µM; in the assay with T-47D breast it was greater than 100 µM. For the same compound, the TGI was determined as 9.32 µM in the assay on HOP-92 NSCLC, 27.9 µM in the assay with NCI-H23 lung and 33.2 µM in the assay with HCC-2998 colon.
